From patent publication US20230381159A1 (priority 2020, published 2023)

Tested on: SARS-CoV-2 pseudovirus (VSV-ΔG) entry into ACE2/Furin expressing host cells (Vero-E6)
Assay: microbe, parasite or virus in culture
Format: cell-based, SARS-CoV-2 pseudovirus / African Green Monkey cells
Conditions: Severe acute respiratory syndrome-related coronavirus, Vero C1008, 20 h, read-out: IC50, inhibition of pseudovirus entry (VSV-ΔG)

Compound | IC50
O=C(Nc1ccc(-c2ccc(C(=O)Nc3cccc4cc(S(=O)(=O)O)ccc34)cc2)cc1)c1ccc([N+](=O)[O-])cc1 [Compound A2, 5-(4′-(4-Nitrobenzamido)biphenyl-4-ylcarboxamido)naphthalene-2-sulfonic acid] | 7 µM
Nc1c(/N=N/c2ccc(-c3ccc(/N=N/c4cc(S(=O)(=O)O)c5ccccc5c4N)cc3)cc2)cc(S(=O)(=O)O)c2ccccc12 [Congo red] | 16 µM
